In PubChem BioAssay AID1963971 (Molecular Pharmacology Branch, DTP, NCI, 2024):

Tested on: 953936-095-R-J2-PDC spheroids with HUVEC/MSC, viability
Assay: Anticancer human tumor 953936-095-R-J2-PDC patient-derived cervical squamous cell carcinoma cell line growth inhibition [PI3K]
Conditions: for IC50: curve of first compound; for viability, T/C: stronger effect = lower value
Summary of the method: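 Stroma-containing spheroids: tumor line, pooled-donor HUVEC, hMSC. Treatments: targeted agents with PI3K inhibitors. Dosing: clinically relevant, half-log spacing, 10 microM ceiling without known Cmax. Read-out: cell viability.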

[1] = second compound 0.0316 µM, first compound 0.0316 µM
[2] = second compound 0.0316 µM, first compound 0.1 µM
[3] = second compound 0.1 µM, first compound 0.0316 µM
[4] = second compound 0.1 µM, first compound 0.1 µM
[5] = second compound 0.316 µM, first compound 0.0316 µM
[6] = second compound 0.316 µM, first compound 0.1 µM
[7] = second compound 1 µM, first compound 0.0316 µM
[8] = second compound 1 µM, first compound 0.1 µM
[9] = second compound 3.16 µM, first compound 0.0316 µM
[10] = second compound 3.16 µM, first compound 0.1 µM
[11] = second compound 10 µM, first compound 0.0316 µM
[12] = second compound 10 µM, first compound 0.1 µM
[13] = second compound 0.0316 µM, first compound 0.316 µM
[14] = second compound 0.0316 µM, first compound 1 µM
[15] = second compound 0.0316 µM, first compound 3.16 µM
[16] = second compound 0.0316 µM, first compound 10 µM
[17] = second compound 0.1 µM, first compound 0.316 µM
[18] = second compound 0.1 µM, first compound 1 µM
[19] = second compound 0.1 µM, first compound 3.16 µM
[20] = second compound 0.1 µM, first compound 10 µM
[21] = second compound 0.316 µM, first compound 0.316 µM
[22] = second compound 0.316 µM, first compound 1 µM
[23] = second compound 0.316 µM, first compound 3.16 µM
[24] = second compound 0.316 µM, first compound 10 µM
[25] = second compound 1 µM, first compound 0.316 µM
[26] = second compound 1 µM, first compound 1 µM
[27] = second compound 1 µM, first compound 3.16 µM
[28] = second compound 1 µM, first compound 10 µM
[29] = second compound 3.16 µM, first compound 0.316 µM
[30] = second compound 3.16 µM, first compound 1 µM
[31] = second compound 3.16 µM, first compound 3.16 µM
[32] = second compound 3.16 µM, first compound 10 µM
[33] = second compound 10 µM, first compound 0.316 µM
[34] = second compound 10 µM, first compound 1 µM
[35] = second compound 10 µM, first compound 3.16 µM
[36] = second compound 10 µM, first compound 10 µM
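Note: spheroids exposed to compounds for seven days before read-out.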

CC(C)n1nc(-c2ccc3oc(N)nc3c2)c2c(N)ncnc21 + Cc1nc(NC(=O)N2CCCC2C(N)=O)sc1-c1ccnc(C(C)(C)C(F)(F)F)c1
IC50 (second compound 0.0316 µM): 24.3 nM
IC50 (second compound 0.1 µM): 18.7 nM
IC50 (second compound 0.316 µM): 7.32 nM
IC50 (second compound 1 µM): < 0.316 nM
IC50 (second compound 3.16 µM): < 0.316 nM
IC50 (second compound 10 µM): < 0.316 nM
viability, T/C (second compound 0.0316 µM, first compound 0.000316 µM): 83%
viability, T/C (second compound 0.0316 µM, first compound 0.001 µM): 86.6%
viability, T/C (second compound 0.0316 µM, first compound 0.00316 µM): 78.5%
viability, T/C (second compound 0.0316 µM, first compound 0.01 µM): 68.2%
viability, T/C [1]: 44.8%
viability, T/C [2]: 16.1%
viability, T/C (second compound 0.1 µM, first compound 0.000316 µM): 78.4%
viability, T/C (second compound 0.1 µM, first compound 0.001 µM): 74.6%
viability, T/C (second compound 0.1 µM, first compound 0.00316 µM): 69.2%
viability, T/C (second compound 0.1 µM, first compound 0.01 µM): 64.1%
viability, T/C [3]: 39.2%
viability, T/C [4]: 15.2%
viability, T/C (second compound 0.316 µM, first compound 0.000316 µM): 66%
viability, T/C (second compound 0.316 µM, first compound 0.001 µM): 60.7%
viability, T/C (second compound 0.316 µM, first compound 0.00316 µM): 56.8%
viability, T/C (second compound 0.316 µM, first compound 0.01 µM): 48.7%
viability, T/C [5]: 30.8%
viability, T/C [6]: 11.8%
viability, T/C (second compound 1 µM, first compound 0.000316 µM): 45.9%
viability, T/C (second compound 1 µM, first compound 0.001 µM): 42.9%
viability, T/C (second compound 1 µM, first compound 0.00316 µM): 38.4%
viability, T/C (second compound 1 µM, first compound 0.01 µM): 33.9%
viability, T/C [7]: 19.7%
viability, T/C [8]: 8.92%
viability, T/C (second compound 3.16 µM, first compound 0.000316 µM): 26%
viability, T/C (second compound 3.16 µM, first compound 0.001 µM): 24.1%
viability, T/C (second compound 3.16 µM, first compound 0.00316 µM): 21.5%
viability, T/C (second compound 3.16 µM, first compound 0.01 µM): 18.3%
viability, T/C [9]: 10.8%
viability, T/C [10]: 5.88%
viability, T/C (second compound 10 µM, first compound 0.000316 µM): 11.7%
viability, T/C (second compound 10 µM, first compound 0.001 µM): 10.8%
viability, T/C (second compound 10 µM, first compound 0.00316 µM): 10.2%
viability, T/C (second compound 10 µM, first compound 0.01 µM): 9.27%
viability, T/C [11]: 6.73%
viability, T/C [12]: 3.32%

CC1(C)CCC(CN2CCN(c3ccc(C(=O)NS(=O)(=O)c4ccc(NCC5CCOCC5)c([N+](=O)[O-])c4)c(Oc4cnc5[nH]ccc5c4)c3)CC2)=C(c2ccc(Cl)cc2)C1 + Cc1nc(NC(=O)N2CCCC2C(N)=O)sc1-c1ccnc(C(C)(C)C(F)(F)F)c1
IC50 (second compound 0.0316 µM): 6770 nM
IC50 (second compound 0.1 µM): 7010 nM
IC50 (second compound 0.316 µM): 5150 nM
IC50 (second compound 1 µM): < 31.6 nM
IC50 (second compound 3.16 µM): < 31.6 nM
IC50 (second compound 10 µM): < 31.6 nM
viability, T/C [1]: 88.8%
viability, T/C [2]: 96.5%
viability, T/C [13]: 97.6%
viability, T/C [14]: 100%
viability, T/C [15]: 109%
viability, T/C [16]: 25.2%
viability, T/C [3]: 90.7%
viability, T/C [4]: 82.5%
viability, T/C [17]: 82.7%
viability, T/C [18]: 85.7%
viability, T/C [19]: 96%
viability, T/C [20]: 33.5%
viability, T/C [5]: 65.3%
viability, T/C [6]: 64.1%
viability, T/C [21]: 61.1%
viability, T/C [22]: 63.4%
viability, T/C [23]: 67.8%
viability, T/C [24]: 30.5%
viability, T/C [7]: 52.5%
viability, T/C [8]: 47.6%
viability, T/C [25]: 41.2%
viability, T/C [26]: 40.5%
viability, T/C [27]: 40%
viability, T/C [28]: 19.3%
viability, T/C [9]: 27.4%
viability, T/C [10]: 27.2%
viability, T/C [29]: 25.6%
viability, T/C [30]: 26.3%
viability, T/C [31]: 22.3%
viability, T/C [32]: 20.4%
viability, T/C [11]: 11.4%
viability, T/C [12]: 10.8%
viability, T/C [33]: 10.2%
viability, T/C [34]: 11.8%
viability, T/C [35]: 12.4%
viability, T/C [36]: 8.8%

CCCS(=O)(=O)Nc1ccc(F)c(C(=O)c2c[nH]c3ncc(-c4ccc(Cl)cc4)cc23)c1F + Cc1nc(NC(=O)N2CCCC2C(N)=O)sc1-c1ccnc(C(C)(C)C(F)(F)F)c1
IC50 (second compound 0.0316 µM): 5030 nM
IC50 (second compound 0.1 µM): 4880 nM
IC50 (second compound 0.316 µM): 4280 nM
IC50 (second compound 1 µM): < 31.6 nM
IC50 (second compound 3.16 µM): < 31.6 nM
IC50 (second compound 10 µM): < 31.6 nM
viability, T/C [1]: 90.7%
viability, T/C [2]: 95.1%
viability, T/C [13]: 95.8%
viability, T/C [14]: 99.2%
viability, T/C [15]: 83.2%
viability, T/C [16]: 0.75%
viability, T/C [3]: 82.6%
viability, T/C [4]: 88.3%
viability, T/C [17]: 86.1%
viability, T/C [18]: 92.9%
viability, T/C [19]: 80%
viability, T/C [20]: 0.68%
viability, T/C [5]: 64.6%
viability, T/C [6]: 65.1%
viability, T/C [21]: 66.9%
viability, T/C [22]: 73.8%
viability, T/C [23]: 68.2%
viability, T/C [24]: 0.57%
viability, T/C [7]: 46.6%
viability, T/C [8]: 45.9%
viability, T/C [25]: 47%
viability, T/C [26]: 50.2%
viability, T/C [27]: 37.3%
viability, T/C [28]: 0.59%
viability, T/C [9]: 26.6%
viability, T/C [10]: 26.2%
viability, T/C [29]: 27.5%
viability, T/C [30]: 25.5%
viability, T/C [31]: 20.2%
viability, T/C [32]: 1.4%
viability, T/C [11]: 11.7%
viability, T/C [12]: 12.8%
viability, T/C [33]: 13.7%
viability, T/C [34]: 14.2%
viability, T/C [35]: 9.62%
viability, T/C [36]: 0.42%
